Consider two compounds from patent publication US9283277B2, “Methods and compositions for the treatment of obesity” (Children's Medical Center Corporation, priority 2008, dated 2016).

Format in all cases: in vivo
The test system of data set [1] is blood brain barrier. As to the kind of experiment: Blood brain barrier permeability with Fluoro-gold in PBA-treated HFD-fed mice. Particulars: HFD-fed wt male mice; PBA 12 days; Fluoro-gold IP 15 mg/kg. As for the experimental part: Leptin resistance in obesity arises due to both impairment of leptin action in the hypothalamus and defects in the transport of leptin in the blood brain barrier^14,42. […] Three days after the injections, mice were anesthetized and perfused with saline and then 4% paraformaldehyde. After the fixation, brains were removed. Following the necessary further fixation and sectioning, Fluoro-gold staining was performed on the whole brain slices. […] Reactivity against the Fluoro-gold is not different between the vehicle and PBA-treated groups. Fluoro-gold-labeled neurons should be present in the areas like ventro-medial hypothalamus (VMH), dorso-medial hypothalamus (DMH) and lateral hypothalamic area (LHA), if the BBB permeability is perturbed. […] (data not shown)

Data set [2] has as its system HFD-fed obese C57BL/6 mice. As to the kind of experiment: PBA pretreatment and leptin in HFD-fed obese mice (bodyweight, metabolic cage, DEXA). The method, then:
C57BL/6 mice that were kept on high fat diet feeding for 25 weeks were either treated with vehicle or PBA (1 g/kg/day) for 10 days. Following the pretreatment period mice were given daily leptin (5 mg/kg/day, IP) treatment. (a) Bodyweight (g), (b) % decrease in the bodyweight, and (c) 24 hour food intake (g) during the 30 days of leptin administration. Metabolic cage analysis was performed after 25 days of treatment (d) O2 consumption (ml/kg/hr), (e) CO2 production (ml/kg/hr), (f) X-axis ambulatory activity, (g) Respiratory exchange ratio (VCO2/VO2), (h) Heat generation (kcal/hr). Dexa scan analysis of (i) Lean body mass (g), (j) Fat % and (k) Total fat amount (g). C57BL6 mice were fed a HFD for a period of 25 weeks and then either treated with PBA (1 g/kg) or VEH for 16 days. (1) PERK phosphorylation in the hypothalamus extracts. (m) Leptin-stimulated Stat3^Tyr705 phosphorylation in the VEH and PBA-treated HFD-fed mice. (n) C57BL6 mice were fed a ND for a period of 25 weeks and then either treated with PBA (1 g/kg) or VEH for 16 days. Following the treatment period mice were starved for six hours and subsequently injected with leptin (IP, 1 mg/kg). Stat3^Tyr705 phoshorylation and total Stat levels were examined in the hypothalamus extracts. (n=6 in each group). Error bars are ±S.E.M., P values are determined by Student's t-test. (*p<0.05, **p<0.01, ***p<0.001)
Obesity owing to a high fat diet is fundamentally different from that seen in ob/ob mice in that it occurs in the face of high leptin levels. To determine whether PBA also sensitizes HFD-fed obese mice to leptin, mice that were kept on HFD for 25 weeks were pretreated with vehicle or PBA for 10 days, and then given leptin treatment (5 mg/kg/day). Leptin administration to the vehicle-treated group led to an acute weight loss, which was rapidly regained (FIG. 3a). By the end of treatment period, leptin created a slight but significant change in the body weight in the vehicle-treated group by reducing it from 42.42±0.27 g to 40.78±0.55 (3.8±0.9% decrease in bodyweight) (FIG. 3a,b). […] During the course of the experiment we placed the vehicle and PBA-treated groups in metabolic cages to investigate metabolic homeostasis in detail. […] Following the metabolic cage analysis we performed DEXA scan to analyze whole body fat content.

The subject of data set [3] is hypothalamus of lean mice. The experiment in a line: Tunicamycin infusion to the third ventricle of lean mice. Particulars: leptin 1 mg/kg IP 5½ hours after third ventricle tunicamycin or vehicle infusion, 30 minutes after leptin. From the text:
Having shown that ER stress is increased in the hypothalamus of HFD-fed mice and causes leptin resistance in the cellular systems, we sought to investigate whether leptin action could also be blocked by directly inducing ER stress in brains of lean mice.
Next, we investigated the expression patterns of leptin resistance markers such as neuropeptide Y (NPY) and agouti related peptide (AgRP) in the vehicle- and tunicamycin-infused mice. […] In addition, to exclude the possibility that tunicamycin infusion leads to a decay in mRNA degradation of NPY and AgRP due to a possible toxic effect, we analyzed mRNA levels of IR and insulin receptor substrate 1 (IRS1).
To assess whether increased ER stress and activation of UPR signaling would create leptin resistance and block the leptin-stimulated Stat3 activation in the hypothalamus, leptin (1 mg/kg/day) was intraperitoneally administered 5½ hours after tunicamycin infusion. The experiment was ended by dissection of the hypothalami 30 minutes after leptin administration. […] In contrast, administration of tunicamycin to the third ventricle and creation of ER stress, in complete accordance with our data obtained from 293 cells, blocked activation of Stat3 in the hypothalamus (data not shown).

The mark [4] stands for this setting: mice on HFD 25 weeks, leptin 5 mg/kg/day IP, 30 days, vehicle or PBA (1 g/kg/day) pretreated.

As to `O=C(O)CCCc1ccccc1` [PBA, 4-phenyl butyric acid], the “BBB permeability (Fluoro-gold-labeled neurons in VMH, DMH, LHA)” value in data set [1] is on record as “not increased”.

As for “leptin: adipocyte-derived hormone that suppresses appetite”, the lean mass entry in data set [2] (HFD-fed mice, DEXA scan) is on record as “does not change”. Besides, the initial body weight in data set [2] (mice on HFD 25 weeks, before leptin 5 mg/kg/day, vehicle or PBA pretreated 10 days) stood at 42.42 ± 0.27 g. In addition, in data set [2] (setting [4]), the “body weight at end of treatment period” value stood at 40.78 ± 0.55 g and the decrease in bodyweight worked out at 3.8±0.9%. Also, in data set [3], the “Stat3 phosphorylation (activation) in the hypothalamus” value was “marked increase”.
